Data reported in ChEMBL document CHEMBL1137975, “DNA binding ligands with in vivo efficacy in murine models of bacterial infection: optimization of internal aromatic amino acids” (2004).
In brackets after ≈: the same amount, converted by molar mass.

Legend:
[1] = Minimum inhibitory concentration in mice against antimicrobial activity in […] (PISP 49619).; format: functional; conditions: Streptococcus pneumoniae
[2] = tested on: Staphylococcus aureus; assay: Minimum inhibitory concentration in mice against antimicrobial activity in methicillin-resistant Staphylococcus aureus(MRSA 27660).; format: functional
[3] = tested on: Enterococcus faecalis; assay: Minimum inhibitory concentration in mice against antimicrobial activity in vancomycin-sensitive Enterococcus faecalis (VSEF 29212).
[4] = organism: Mus musculus; assay: Minimum inhibitory concentration was evaluated in mice against antimicrobial activity in methicillin-resistant Staphylococcus aureus(MRSA 27660); 0.06-0.13; format: functional
[5] = organism: Mus musculus; assay: Minimum inhibitory concentration was evaluated in mice against antimicrobial activity in […] (PISP 49619); 0.03-0.06; format: functional
[6] = organism: Mus musculus; assay: Minimum inhibitory concentration was evaluated in mice against antimicrobial activity in methicillin-resistant Staphylococcus aureus(MRSA 27660); 0.25-1; format: functional
[7] = organism: Mus musculus; assay: Minimum inhibitory concentration was evaluated in mice against antimicrobial activity in […] Enterococcus faecalis (VSEF 29212); 0.5-2; format: functional
[8] = organism: Mus musculus; assay: Minimum inhibitory concentration was evaluated in mice against antimicrobial activity in […] (PISP 49619); 1-2; format: functional
[9] = organism: Mus musculus; assay: Minimum inhibitory concentration was evaluated in mice against antimicrobial activity in methicillin-resistant Staphylococcus aureus(MRSA 27660); 1-2; format: functional
[10] = organism: Mus musculus; assay: Minimum inhibitory concentration was evaluated in mice against antimicrobial activity in […] (PISP 49619); 0.5-1; format: functional
[11] = organism: Mus musculus; assay: Minimum inhibitory concentration was evaluated in mice against antimicrobial activity in […] (PISP 49619); 0.03-0.13; format: functional
[12] = organism: Mus musculus; assay: Minimum inhibitory concentration was evaluated in mice against antimicrobial activity in […] Enterococcus faecalis (VSEF 29212); 0.13-1; format: functional
[13] = organism: Mus musculus; assay: Minimum inhibitory concentration was evaluated in mice against antimicrobial activity in […] (PISP 49619); 1-32; format: functional

| SMILES | MIC [1] [µg/mL] | MIC [2] [µg/mL] | MIC [3] [µg/mL] | also measured |
| --- | --- | --- | --- | --- |
| Cc1cnc(C(=O)Nc2cc(C(=O)Nc3ccc(C(=O)Nc4cc(C(=O)NCCN5CCOCC5)n(C)c4)cc3)n(C)c2)cn1 | 0.13 (≈ 0.212 µM) | 0.5 (≈ 0.815 µM) | 2 (≈ 3.26 µM) |  |
| Cn1cc(NC(=O)c2ccc(NC(=O)c3cc(NC(=O)c4sc5ccccc5c4Cl)cn3C)cc2)cc1C(=O)NCCN1CCOCC1 | 0.25 (≈ 0.363 µM) | > 32 | 16 (≈ 23.2 µM) |  |
| Cn1cc(NC(=O)c2ccc(NC(=O)c3cc(NC(=O)c4cc5ccccc5cn4)cn3C)cc2)cc1C(=O)NCCN1CCOCC1 |  |  |  | MIC [4]: 0.13 µg/mL (≈ 0.2 µM); MIC [5]: 0.06 µg/mL (≈ 0.0925 µM) |
| Cn1cc(NC(=O)c2ccc(NC(=O)c3cc(NC(=O)c4cc5cc6c(cc5s4)OCO6)cn3C)cc2)cc1C(=O)NCCN1CCOCC1 | 0.5 (≈ 0.717 µM) | 32 (≈ 45.9 µM) | > 32 |  |
| Cn1cc(NC(=O)c2ccc(NC(=O)c3cc(NC(=O)c4cnc5ccccc5c4)cn3C)cc2)cc1C(=O)NCCN1CCOCC1 | 2 (≈ 3.08 µM) | > 32 | > 32 |  |
| Cn1cc(NC(=O)c2cc(NC(=O)c3cc(NC(=O)c4cc5ccccc5cn4)on3)cn2C)cc1C(=O)NCCN1CCOCC1 | 0.13 (≈ 0.203 µM) | 0.06 (≈ 0.0938 µM) | 0.5 (≈ 0.782 µM) |  |
| Cn1cc(NC(=O)c2sccc2Cl)cc1C(=O)Nc1cc(C(=O)Nc2ccc(C(=O)NCCN3CCOCC3)cc2)n(C)c1 | > 32 | > 32 | > 32 |  |
| Cn1cc(NC(=O)c2ccc(NC(=O)c3cc(NC(=O)c4ccncn4)cn3C)cc2)cc1C(=O)NCCN1CCOCC1 | 0.5 (≈ 0.834 µM) | > 32 | 32 (≈ 53.4 µM) |  |
| Cn1cc(NC(=O)c2sccc2Cl)cc1C(=O)Nc1cc(C(=O)Nc2cc(C(=O)NCCN3CCOCC3)n(C)n2)n(C)c1 | > 32 | > 32 | > 32 |  |
| Cn1cc(NC(=O)c2cc(NC(=O)c3cc(NC(=O)c4cc5ccccc5cn4)cn3C)c[nH]2)cc1C(=O)NCCN1CCOCC1 |  |  |  | MIC [6]: 1 µg/mL (≈ 1.57 µM); MIC [7]: 2 µg/mL (≈ 3.14 µM); MIC [8]: 2 µg/mL (≈ 3.14 µM) |
| Cn1cc(NC(=O)c2cc(NC(=O)c3cccc(NC(=O)c4sccc4Cl)c3)cn2C)cc1C(=O)NCCN1CCOCC1 | > 32 | > 32 | > 32 |  |
| Cn1cc(NC(=O)c2cc(NC(=O)c3cc(NC(=O)c4cc5ccccc5cn4)c[nH]3)cn2C)cc1C(=O)NCCN1CCOCC1 |  |  | 0.5 (≈ 0.784 µM) | MIC [9]: 2 µg/mL (≈ 3.14 µM); MIC [10]: 1 µg/mL (≈ 1.57 µM) |
| CC(C)n1cc(NC(=O)c2cc(NC(=O)c3cc(NC(=O)c4sccc4Cl)cn3C)cn2C)cc1C(=O)NCCN1CCOCC1 | 0.25 (≈ 0.374 µM) | 1 (≈ 1.49 µM) | 1 (≈ 1.49 µM) |  |
| Cn1cc(NC(=O)c2cc(NC(=O)c3nc(NC(=O)c4sccc4Cl)cn3C)cn2C)cc1C(=O)NCCN1CCOCC1 |  |  |  | MIC [11]: 0.13 µg/mL (≈ 0.202 µM); MIC [12]: 1 µg/mL (≈ 1.56 µM) |
| Cn1cc(NC(=O)c2sccc2Cl)cc1C(=O)Nc1cc(C(=O)Nc2cn(C)c(C(=O)NCCN3CCOCC3)n2)n(C)c1 | > 32 | > 32 | > 32 |  |
| Cn1cc(NC(=O)c2ccc(NC(=O)c3cc(NC(=O)c4nccc5ccccc45)cn3C)cc2)cc1C(=O)NCCN1CCOCC1 | 0.25 (≈ 0.385 µM) | 1 (≈ 1.54 µM) | 2 (≈ 3.08 µM) |  |
| Cn1cc(NC(=O)c2ccc(NC(=O)c3cc(NC(=O)c4sccc4Cl)cn3C)cc2)cc1C(=O)NCCN1CCOCC1 | 1 (≈ 1.57 µM) | 8 (≈ 12.5 µM) | 2 (≈ 3.13 µM) |  |
| Cn1cc(NC(=O)c2cc(NC(=O)c3cc(NC(=O)c4sccc4Cl)cn3C)nn2C)cc1C(=O)NCCN1CCOCC1 |  | 32 (≈ 49.8 µM) | > 32 | MIC [13]: 32 µg/mL (≈ 49.8 µM) |
| CC(=O)NCC1CN(c2ccc(N3CCOCC3)c(F)c2)C(=O)O1 (single isomer, unassigned) [LINEZOLID] | 1 (≈ 2.96 µM) |  |  |  |
| CN[C@H](CC(C)C)C(=O)N[C@H]1C(=O)N[C@@H](CC(N)=O)C(=O)N[C@H]2C(=O)N[C@H]3C(=O)N[C@H](C(=O)N[C@H](C(=O)O)c4cc(O)cc(O)c4-c4cc3ccc4O)[C@H](O)c3ccc(c(Cl)c3)Oc3cc2cc(c3O[C@@H]2O[C@H](CO)[C@@H](O)[C@H](O)[C@H]2O[C@H]2C[C@](C)(N)[C@H](O)[C@H](C)O2)Oc2ccc(cc2Cl)[C@H]1O [VANCOMYCIN] | 0.25 (≈ 0.173 µM) |  | 1 (≈ 0.69 µM) |  |
